Consider 14 compounds from ChEMBL document CHEMBL1137802, “Specific antioxidant activity of caffeoyl derivatives and other natural phenolic compounds: LDL protection against oxidation and decrease in the proinflammatory lysophosphatidylcholine production” (J Nat Prod, 2001).

Activity calls are given as the source filed them. No cut-off for these calls is given here.

What all share (type): functional, cell-free
The nature of experiment [1]: Antioxidant activity against Cu2+-induced lipid peroxidation in human plasma LDL at 0.01 to 0.1 umol/L preincubated for 1 hr before Cu2+ challenge.
Experiment [2] is described as follows: Antioxidant activity against AAPH-induced lipid peroxidation in human plasma LDL at 0.01 to 0.1 umol/L preincubated for 1 hr before AAPH challenge.
Experiment [3] can be described thus: Antioxidant activity against Cu2+-induced lipid peroxidation in human plasma LDL preincubated for 1 hr before Cu2+ challenge.
Experiment [4] is described as follows: Antioxidant activity against AAPH-induced lipid peroxidation in human plasma LDL preincubated for 1 hr before AAPH challenge.
Experiment [5] in a line: Antioxidant activity against AAPH-induced lipid peroxidation in human plasma LDL at 0.2 umol/L preincubated for 1 hr before AAPH challenge.
Experiment [6] is described as follows: Antioxidant activity against AAPH-induced lipid peroxidation in human plasma LDL at 1 umol/L preincubated for 1 hr before AAPH challenge.

`O=C(O)c1ccc(O)c(O)c1`: the outcome in experiment [1] and in experiment [2] was Active.

With `Oc1cc(O)c2c(c1)OC(c1ccc(O)c(O)c1)C(O)C2` (stereo unspecified), the Activity was 34.6 µM/L in experiment [3] and 156 µM/L in experiment [4].

As to VITAMIN E, the Activity in experiment [3] turned out to be 7.2 µM/L.

`O=C(/C=C/c1ccc(O)c(O)c1)OC(C(=O)O)C(O)C(=O)O` (stereo unspecified) showed an Activity in experiment [3] of 125 µM/L.

Take `O=C(O)/C=C/c1ccc(O)c(O)c1`: the Activity in experiment [3] came out at 54 µM/L; in experiment [4], 73.6 µM/L.

For the compound `O=C(/C=C/c1ccc(O)c(O)c1)O[C@@H]1C[C@](O)(C(=O)O)C[C@@H](O)[C@H]1O`, the Activity in experiment [3] was found to be 156 µM/L; in experiment [4], 55.3 µM/L.

Turning to `O=C(O)/C=C/c1ccc(O)cc1`, the Activity in experiment [3] was 0.6 µM/L.

Compound `COc1cc(/C=C/C(=O)O)cc(OC)c1O` had an Activity in experiment [3] of 47.4 µM/L.

For `O=C(O)c1ccccc1O`, the result in experiment [3] was inactive.

As for `Oc1cc(O)c2c(c1)O[C@H](c1ccc(O)c(O)c1)[C@H](O)C2`, the Activity in experiment [3] came out at 37.1 µmol/L.

With `COc1cc(/C=C/C(=O)O)ccc1O`, the Activity in experiment [3] came out at 8.5 µM/L.

`O=C(/C=C/c1ccc(O)c(O)c1)O[C@H](Cc1ccc(O)c(O)c1)C(=O)O` registered an Activity in experiment [3] of 150 µM/L.

For `CC(=O)Oc1ccccc1C(=O)O`, the result in experiment [3] was inactive.

For the compound `O=C(O)c1cc(O)c(O)c(O)c1`, the Activity in experiment [5] was 90 µM/L; in experiment [6], 30 µM/L. In addition, the result in experiment [1] and in experiment [2] was Active.
